From patent publication US7476689B2, “Therapeutic compositions for intranasal administration which include KETOROLAC” (Recordati Ireland Limited, priority 1991, dated 2009)

Tests used:
patients = conditions: cited from earlier work
[1] = nasal absorption: KTM plasma levels by HPLC after intranasal or intravenous administration; assay type: in vivo, White New Zealand rabbits; conditions: rabbit
Experimental: Each rabbit received a active preparation in one nostril and its placebo in the other. Each animal received 2 mg/kg of KETOROLAC® tromethamine (KTM), twice a day for seven days and once on the eighth day. The control rabbits were treated, after seven days of nasal administration of physiologic solution, with 2 mg/kg of KTM by intravenous route once. After the last treatment plasma samples were collected at several times and KTM plasma levels were investigated by HPLC. After the last blood sample was drawn all the animals were killed by excision of femoral arteries, after having been completely anaesthetized. Nasal turbinates, larynx and pharynx were removed and subjected to histological examinations.

| concentration at 0.083 h ([1]; New Zealand White, plasma, intravenous 2 mg/kg once, 0.083 hours) [ng/mL] | concentration at 0.25 h ([1]; New Zealand White, plasma, intravenous 2 mg/kg once, 0.25 hours) [ng/mL] | concentration at 0.5 h ([1]; New Zealand White, plasma, intravenous 2 mg/kg once, 0.5 hours) [ng/mL] | concentration at 1 h ([1]; New Zealand White, plasma, intravenous 2 mg/kg once, 1 hour) [ng/mL] | concentration at 2 h ([1]; New Zealand White, plasma, intravenous 2 mg/kg once, 2 hours) [ng/mL] | concentration at 3 h ([1]; New Zealand White, plasma, intravenous 2 mg/kg once, 3 hours) [ng/mL] | concentration at 5 h ([1]; New Zealand White, plasma, intravenous 2 mg/kg once, 5 hours) [ng/mL] | AUC(0-t) ([1]; New Zealand White, plasma, intravenous 2 mg/kg, mean of three animals, read-out: AUC0-5, average) [ng·h/mL] | Plasma Concentration of KTM, Mean ([1]; intravenous 2 mg/kg once, sampling time Basal) [ng/mL] | Compound | patients with one or more undesirable side effects (patients; intramuscular route, 20 doses of 30 mg each over five days) | patients with gastrointestinal disorders (patients; oral administration) | incidence of side effects (patients; oral route for a few days) |
| --- | --- | --- | --- | --- | --- | --- | --- | --- | --- | --- | --- | --- |
| – | – | – | – | – | – | – | – | – | O=C(c1ccccc1)c1ccc2n1CCC2C(=O)O (stereo not drawn) [KETOROLAC®, 5-benzoyl-2,3-dihydro-1H-pyrrolizine-1-carboxylic acid] | about 10% | up to 50% | around 32% |
| 14500 | 7680 | 3880 | 1700 | 403 | 120 | 20 | 7360 | 0 | O=C(c1ccccc1)c1ccc2n1CCC2C(=O)O (stereo not drawn) [KTM, KETOROLAC® tromethamine] | – | – | – |
